In PubChem BioAssay AID248 (DTP/NCI, 2004):
“And” between values parts separate entries of the source, which are not always exact repeats. Equal values may be shown once. Toxic doses and inconclusive results are not listed. Square brackets hold non-standard residues; d marks the D form. Peptide text beside a SMILES is read from it. * marks the point of attachment. ξ: configuration not given here. Tos = Cc1ccc(S(=O)(=O)*)cc1; ξY = NC(Cc1ccc(O)cc1)C(=O)O

Tested on: L1210 leukemia ip in BDF1 mice, survival T/C
Assay: NCI In Vivo Anticancer Drug Screen. Data for tumor model L1210 Leukemia (intraperitoneal) in B6D2F1 (BDF1) mice
Conditions: endpoint: mean survival time, higher = longer survival
Method in brief: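 Transplantable tumor model; survival measured in treated vs vehicle control mice. Value = treated/control.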

[1] = dose: 50.0 mg/kg/injection, schedule: Q01DX001 (ip), vehicle: saline
[2] = dose: 100.0 mg/kg/injection, schedule: Q01DX001 (ip), vehicle: saline
[3] = dose: 200.0 mg/kg/injection, schedule: Q01DX001 (ip), vehicle: saline
[4] = dose: 50.0 mg/kg/injection, schedule: Q01DX009 (ip), vehicle: Klucel (hydroxypropylcellulose) (HPC)
[5] = dose: 100.0 mg/kg/injection, schedule: Q04DX002 (ip), vehicle: Klucel (hydroxypropylcellulose) (HPC)
[6] = dose: 200.0 mg/kg/injection, schedule: Q04DX002 (ip), vehicle: Klucel (hydroxypropylcellulose) (HPC)
[7] = dose: 200.0 mg/kg/injection, schedule: Q04DX003 (ip), vehicle: saline with Tween-80
[8] = dose: 400.0 mg/kg/injection, schedule: Q04DX003 (ip), vehicle: saline with Tween-80
[9] = dose: 100.0 mg/kg/injection, schedule: Q01DX001 (ip), vehicle: carboxymethylcellulose (CMC)
[10] = dose: 200.0 mg/kg/injection, schedule: Q01DX001 (ip), vehicle: carboxymethylcellulose (CMC)
[11] = dose: 400.0 mg/kg/injection, schedule: Q01DX001 (ip), vehicle: carboxymethylcellulose (CMC)
[12] = dose: 100.0 mg/kg/injection, schedule: Q01DX009 (ip), vehicle: saline with Tween-80
[13] = dose: 200.0 mg/kg/injection, schedule: Q01DX009 (ip), vehicle: saline with Tween-80

`CN1CCN=C1c1ccc(NC(=O)c2cccc(C(=O)Nc3ccc(C4=NCCN4C)cc3)c2)cc1` was tested, and the T/C (dose: 1.88 mg/kg/injection, schedule: Q01DX Z (ip), vehicle: saline) was 107 % of control, the T/C (dose: 3.75 mg/kg/injection, schedule: Q01DX Z (ip), vehicle: saline) was 101 % of control and the T/C (dose: 7.5 mg/kg/injection, schedule: Q01DX Z (ip), vehicle: saline) was 122 % of control. The T/C (dose: 30.0 mg/kg/injection, schedule: Q01DX Z (ip), vehicle: saline) was 154 % of control, the T/C (dose: 60.0 mg/kg/injection, schedule: Q01DX Z (ip), vehicle: saline) was 234 % of control and the T/C (dose: 120.0 mg/kg/injection, schedule: Q01DX Z (ip), vehicle: saline) was 171 % of control. For the same compound, the T/C (dose: 240.0 mg/kg/injection, schedule: Q01DX Z (ip), vehicle: saline) was 119 % of control and the T/C (dose: 480.0 mg/kg/injection, schedule: Q01DX Z (ip), vehicle: saline) was 106 % of control.

`CCC(C#N)(CC)c1ccccc1` was tested, and the T/C [1] was 113 % of control, the T/C [2] was 107 % of control and the T/C [3] was 89 % of control. For the same compound, the T/C (dose: 400.0 mg/kg/injection, schedule: Q01DX001 (ip), vehicle: saline) was 101 % of control.

With `Cc1cc(C)c(NC(=O)CC#N)c(C)c1` the T/C (dose: 100.0 mg/kg/injection, schedule: Q04DX002 (ip), vehicle: saline with Tween-80) was 90 % of control, the T/C (dose: 200.0 mg/kg/injection, schedule: Q04DX002 (ip), vehicle: saline with Tween-80) was 90 % of control and the T/C (dose: 400.0 mg/kg/injection, schedule: Q04DX002 (ip), vehicle: saline with Tween-80) was 90 % of control.

In the case of `O=C1C(O)=C(c2ccccc2)C(=O)C(O)=C1c1ccccc1`, the T/C (dose: 25.0 mg/kg/injection, schedule: Q01DX001 (ip), vehicle: saline) is reported as 95 % of control, the T/C (dose: 25.0 mg/kg/injection, schedule: Q01DX009 (ip), vehicle: Klucel (hydroxypropylcellulose) (HPC)) is reported as 100 % of control and the T/C [1] is reported as 104 % of control. The T/C [4] was 105 % of control, the T/C (dose: 50.0 mg/kg/injection, schedule: Q04DX002 (ip), vehicle: Klucel (hydroxypropylcellulose) (HPC)) was 98 % of control and the T/C [2] was 96 % of control. For the same compound, the T/C [5] was 120 % of control, the T/C [3] was 104 % of control and the T/C [6] was 91 % of control.

For `CC(C)/C=N\O`, the T/C (dose: 100.0 mg/kg/injection, schedule: Q04DX003 (ip), vehicle: saline with Tween-80) was 104 % of control, the T/C [7] was 123 % of control and the T/C [8] was 109 % of control.

`Cc1nc(N(C)CC(=O)O)ncc1C(=O)O` was tested, and the T/C [5] was 91 % of control, the T/C [6] was 91 % of control and the T/C (dose: 400.0 mg/kg/injection, schedule: Q04DX002 (ip), vehicle: Klucel (hydroxypropylcellulose) (HPC)) was 94 % of control.

In the case of `COC(=O)C(Cc1ccc(O)cc1)NC(=O)CNS(=O)(=O)c1ccc(C)cc1` (stereo not drawn) (Tos-Gly-[ξY]-OMe), the T/C (dose: 100.0 mg/kg/injection, schedule: Q04DX003 (ip), vehicle: other) is reported as 105 % of control, the T/C (dose: 200.0 mg/kg/injection, schedule: Q04DX003 (ip), vehicle: other) is reported as 94 % of control and the T/C (dose: 400.0 mg/kg/injection, schedule: Q04DX003 (ip), vehicle: other) is reported as 104 % of control.

`N#Cc1ccc(-c2ccc(N)cc2)cc1` was tested, and the T/C (dose: 50.0 mg/kg/injection, schedule: Q01DX001 (ip), vehicle: carboxymethylcellulose (CMC)) was 88 % of control, the T/C [9] was 90 % of control and the T/C [10] was 88 % of control. For the same compound, the T/C [11] was 90 % of control.

`ClC1(Cl)Cc2ccccc21` was tested, and the T/C [12] was 97 % of control, the T/C (dose: 177.0 mg/kg/injection, schedule: Q04DX003 (ip), vehicle: saline with Tween-80) was 98 % of control and the T/C [13] was 96 % of control. The T/C [7] was 101 % of control, the T/C (dose: 266.0 mg/kg/injection, schedule: Q04DX003 (ip), vehicle: saline with Tween-80) was 98 % of control and the T/C (dose: 400.0 mg/kg/injection, schedule: Q01DX009 (ip), vehicle: saline with Tween-80) was 96 % of control. For the same compound, the T/C [8] was 98 % of control and the T/C (dose: 600.0 mg/kg/injection, schedule: Q04DX003 (ip), vehicle: saline with Tween-80) was 110 % of control.

In the case of `O=C(Nc1ccc([N+](=O)[O-])cc1Cl)Oc1ccc(Cl)cc1Cl`, the T/C [9] is reported as 97 % of control, the T/C (dose: 100.0 mg/kg/injection, schedule: Q01DX009 (ip), vehicle: carboxymethylcellulose (CMC)) is reported as 109 % of control and 91 % of control and the T/C (dose: 100.0 mg/kg/injection, schedule: Q04DX002 (ip), vehicle: carboxymethylcellulose (CMC)) is reported as 94 % of control and 90 % of control. The T/C (dose: 100.0 mg/kg/injection, schedule: Q04DX003 (ip), vehicle: carboxymethylcellulose (CMC)) was 102 % of control, the T/C [10] was 97 % of control and the T/C (dose: 200.0 mg/kg/injection, schedule: Q01DX009 (ip), vehicle: carboxymethylcellulose (CMC)) was 102 % of control and 91 % of control. The T/C (dose: 200.0 mg/kg/injection, schedule: Q04DX002 (ip), vehicle: carboxymethylcellulose (CMC)) was 93 % of control and 110 % of control, the T/C (dose: 200.0 mg/kg/injection, schedule: Q04DX003 (ip), vehicle: carboxymethylcellulose (CMC)) was 94 % of control and the T/C [11] was 98 % of control. For the same compound, the T/C (dose: 400.0 mg/kg/injection, schedule: Q01DX009 (ip), vehicle: carboxymethylcellulose (CMC)) was 98 % of control, the T/C (dose: 400.0 mg/kg/injection, schedule: Q04DX002 (ip), vehicle: carboxymethylcellulose (CMC)) was 93 % of control and 105 % of control and the T/C (dose: 400.0 mg/kg/injection, schedule: Q04DX003 (ip), vehicle: carboxymethylcellulose (CMC)) was 98 % of control.

`O=C(O)COc1c(Br)cc(Br)cc1Br` was tested, and the T/C [4] was 93 % of control, the T/C (dose: 100.0 mg/kg/injection, schedule: Q01DX009 (ip), vehicle: Klucel (hydroxypropylcellulose) (HPC)) was 96 % of control and the T/C (dose: 200.0 mg/kg/injection, schedule: Q01DX009 (ip), vehicle: Klucel (hydroxypropylcellulose) (HPC)) was 88 % of control.

`Nc1ccc(-c2ccc(Nc3cc(S(=O)(=O)O)c(N)c4c3C(=O)c3ccccc3C4=O)cc2)c(S(=O)(=O)O)c1` was tested, and the T/C (dose: 10.0 mg/kg/injection, schedule: Q01DX001 (ip), vehicle: acetone) was 96 % of control, the T/C (dose: 20.0 mg/kg/injection, schedule: Q01DX001 (ip), vehicle: acetone) was 89 % of control and the T/C (dose: 40.0 mg/kg/injection, schedule: Q01DX001 (ip), vehicle: acetone) was 100 % of control.

In the case of `Cc1ccccc1-n1c(O)c(N=Nc2ccc(Br)cc2)c(=O)n(-c2ccccc2)c1=S`, the T/C (dose: 100.0 mg/kg/injection, schedule: Q01DX001 (ip), vehicle: Klucel (hydroxypropylcellulose) (HPC)) is reported as 94 % of control, the T/C (dose: 200.0 mg/kg/injection, schedule: Q01DX001 (ip), vehicle: Klucel (hydroxypropylcellulose) (HPC)) is reported as 94 % of control and the T/C (dose: 400.0 mg/kg/injection, schedule: Q01DX001 (ip), vehicle: Klucel (hydroxypropylcellulose) (HPC)) is reported as 91 % of control.

`CCOC(=O)c1ccc(NC(=O)Nc2nccs2)cc1` was tested, and the T/C (dose: 88.0 mg/kg/injection, schedule: Q01DX009 (ip), vehicle: saline with Tween-80) was 113 % of control, the T/C [12] was 123 % of control and the T/C (dose: 132.0 mg/kg/injection, schedule: Q01DX009 (ip), vehicle: saline with Tween-80) was 109 % of control. The T/C [13] was 122 % of control and the T/C (dose: 300.0 mg/kg/injection, schedule: Q01DX009 (ip), vehicle: saline with Tween-80) was 124 % of control.
